# Data published in patent US20260242419A1, “A CYCLIC PEPTIDE FOR TRAPPING INTERLEUKIN-1 BETA” (Merck Sharp & Dohme LLC, priority 2023, published 2026).
# Starred links: 1 amine or outer side, 2 acyl side, 3 side chain; linkers in the order of their positions; H or OH if unused. Non-standard residues stand in square brackets, D forms with d. Residues, ends and D or L forms follow the SMILES beside them. dPro(4R-(4-pyridylmethyl)) = O=C(O)[C@H]1C[C@@H](Cc2ccncc2)CN1; Trp(βS-Me,4-F) = C[C@@H](c1c[nH]c2cccc(F)c12)[C@H](N)C(=O)O; Bip(4'-COOH) = N[C@@H](Cc1ccc(-c2ccc(C(=O)O)cc2)cc1)C(=O)O; X4 = O=C([C@H]1[C@@H](Cc2ccncc2)CCN1[*:1])[*:2]; Ala(pyrimidin-5-yl) = N[C@@H](Cc1cncnc1)C(=O)O; Phe(4-COOH) = N[C@@H](Cc1ccc(C(=O)O)cc1)C(=O)O; Nva(5,5,5-F3) = N[C@@H](CCC(F)(F)F)C(=O)O; Pro(cis-4-F) = O=C(O)[C@@H]1C[C@H](F)CN1; X46 = O=C([C@@H](Cc1cncnc1)N[*:1])[*:2]; dPhe(4-F) = N[C@H](Cc1ccc(F)cc1)C(=O)O; Dap(CONH2) = NC(=O)NC[C@H](N)C(=O)O; d(αMeD) = C[C@@](N)(CC(=O)O)C(=O)O; 4Pal = N[C@@H](Cc1ccncc1)C(=O)O; d3Pal = N[C@H](Cc1cccnc1)C(=O)O; dCha = N[C@H](CC1CCCCC1)C(=O)O; NMeDab = CN[C@@H](CCN)C(=O)O; dCba = N[C@H](CC1CCC1)C(=O)O; Dab = NCC[C@H](N)C(=O)O; Nva = CCC[C@H](N)C(=O)O; Aib = CC(C)(N)C(=O)O
# Target: T1, IL-1β (Homo sapiens, UniProt P01584)
# T1 construct: purchased BioLegend 579404
# Assay: IL-6 assay in MRC5 cells: inhibition of IL-1β induced IL-6 secretion (AlphaLISA)
# Assay type: cell-based
# Details: inhibition of IL-1β induced IL-6 secretion in MRC5 cells; compound pre-incubated 1 hour with recombinant human IL-1β; read-out: MRC5 IC50
# In short: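 Compound was pre-incubated 1 h at ambient temperature with recombinant human IL-1β at 2λ EC80 before adding human lung fibroblast MRC5 cells (3000/well) in EMEM with 0.025% BSA. After overnight culture at 37 °C, 5% CO2, secreted IL-6 in conditioned medium was measured by AlphaLISA; IC50 from 4-parameter logistic fits.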
# T1 sequence (P01584 117-269): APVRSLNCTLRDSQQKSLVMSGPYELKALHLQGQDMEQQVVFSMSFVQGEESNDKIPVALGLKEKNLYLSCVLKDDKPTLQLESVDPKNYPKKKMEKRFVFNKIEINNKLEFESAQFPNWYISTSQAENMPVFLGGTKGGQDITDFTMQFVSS
row,IC50,Structure (SMILES)
1,0.022 nM,"C[C@@H](c1c[nH]c2cccc(F)c12)[C@@H]1NC(=O)[C@@H]2C[C@H](F)CN2C(=O)CNC(=O)[C@H](Cc2ccc(C(=O)O)cc2)NC(=O)[C@H](Cc2ccncc2)NC(=O)[C@H](Cc2ccc(-c3ccc(C(=O)O)cc3)cc2)NC(=O)[C@H]2[C@@H](Cc3ccncc3)CCN2C(=O)CNC(=O)[C@H](CNC(N)=O)NC(=O)[C@H](CCC(N)=O)NC(=O)[C@H](Cc2cncnc2)NC(=O)[C@@](C)(CC(=O)O)NC(=O)[C@H](Cc2c[nH]c3ccccc23)NC(=O)[C@H](CO)NC(=O)C(C)(C)NC1=O [Example 230] (cyclo([Bip(4'-COOH)][4Pal][Phe(4-COOH)]G[Pro(cis-4-F)][Trp(βS-Me,4-F)][Aib]SW[d(αMeD)][Ala(pyrimidin-5-yl)]Q[Dap(CONH2)]G[X4]))"
2,0.027 nM,"CCC[C@@H]1NC(=O)[C@@](C)(CC(=O)O)NC(=O)[C@H](Cc2c[nH]c3ccccc23)NC(=O)[C@H](CO)NC(=O)C(C)(C)NC(=O)[C@H]([C@@H](C)c2c[nH]c3cccc(F)c23)NC(=O)[C@@H]2C[C@H](F)CN2C(=O)CNC(=O)[C@H](Cc2ccc(C(=O)O)cc2)NC(=O)[C@H](Cc2ccncc2)NC(=O)[C@H](Cc2ccc(-c3ccc(C(=O)O)cc3)cc2)NC(=O)[C@H]2[C@@H](Cc3ccncc3)CCN2C(=O)CNC(=O)[C@H](CCN)NC(=O)[C@H](CCC(N)=O)NC1=O [Example 231] (cyclo([Bip(4'-COOH)][4Pal][Phe(4-COOH)]G[Pro(cis-4-F)][Trp(βS-Me,4-F)][Aib]SW[d(αMeD)][Nva]Q[Dab]G[X4]))"
3,0.022 nM,"C[C@@H](c1c[nH]c2cccc(F)c12)[C@@H]1NC(=O)[C@@H]2C[C@H](F)CN2C(=O)CNC(=O)[C@H](Cc2ccc(C(=O)O)cc2)NC(=O)[C@H](Cc2ccncc2)NC(=O)[C@H](Cc2ccc(-c3ccc(C(=O)O)cc3)cc2)NC(=O)[C@H]2[C@@H](Cc3ccncc3)CCN2C(=O)CNC(=O)[C@H](CCN)NC(=O)[C@H](CCC(N)=O)NC(=O)[C@H](CCC(F)(F)F)NC(=O)[C@@](C)(CC(=O)O)NC(=O)[C@H](Cc2c[nH]c3ccccc23)NC(=O)[C@H](CO)NC(=O)C(C)(C)NC1=O [Example 232] (cyclo([Bip(4'-COOH)][4Pal][Phe(4-COOH)]G[Pro(cis-4-F)][Trp(βS-Me,4-F)][Aib]SW[d(αMeD)][Nva(5,5,5-F3)]Q[Dab]G[X4]))"
4,0.03 nM,"C[C@@H](c1c[nH]c2cccc(F)c12)[C@@H]1NC(=O)[C@@H]2C[C@H](F)CN2C(=O)CNC(=O)[C@H](Cc2ccc(C(=O)O)cc2)NC(=O)[C@H](Cc2ccncc2)NC(=O)[C@H](Cc2ccc(-c3ccc(C(=O)O)cc3)cc2)NC(=O)[C@H]2[C@@H](Cc3ccncc3)CCN2C(=O)CNC(=O)[C@H](CCN)NC(=O)[C@H](CCC(N)=O)NC(=O)[C@@H](Cc2cncnc2)NC(=O)C(C)(C)NC(=O)[C@H](Cc2c[nH]c3ccccc23)NC(=O)[C@H](CO)NC(=O)C(C)(C)NC1=O [Example 233] (cyclo([Bip(4'-COOH)][4Pal][Phe(4-COOH)]G[Pro(cis-4-F)][Trp(βS-Me,4-F)][Aib]SW[Aib][X46]Q[Dab]G[X4]))"
5,0.024 nM,"C[C@@H](c1c[nH]c2cccc(F)c12)[C@@H]1NC(=O)[C@@H]2C[C@H](F)CN2C(=O)CNC(=O)[C@H](Cc2ccc(C(=O)O)cc2)NC(=O)[C@H](Cc2ccncc2)NC(=O)[C@H](Cc2ccc(-c3ccc(C(=O)O)cc3)cc2)NC(=O)[C@H]2[C@@H](Cc3ccncc3)CCN2C(=O)CNC(=O)[C@H](CCN)NC(=O)[C@H](CCC(N)=O)NC(=O)[C@@H](CC(=O)O)NC(=O)C(C)(C)NC(=O)[C@H](Cc2c[nH]c3ccccc23)NC(=O)[C@H](CO)NC(=O)C(C)(C)NC1=O [Example 234] (cyclo([Bip(4'-COOH)][4Pal][Phe(4-COOH)]G[Pro(cis-4-F)][Trp(βS-Me,4-F)][Aib]SW[Aib][dD]Q[Dab]G[X4]))"
6,0.018 nM,"C[C@@H](c1c[nH]c2cccc(F)c12)[C@@H]1NC(=O)[C@@H]2C[C@H](F)CN2C(=O)CNC(=O)[C@H](Cc2ccc(C(=O)O)cc2)NC(=O)[C@H](Cc2ccncc2)NC(=O)[C@H](Cc2ccc(-c3ccc(C(=O)O)cc3)cc2)NC(=O)[C@H]2[C@@H](Cc3ccncc3)CCN2C(=O)CNC(=O)[C@H](CCN)N(C)C(=O)[C@H](CCC(N)=O)NC(=O)[C@H](Cc2cncnc2)NC(=O)[C@@](C)(CC(=O)O)NC(=O)[C@H](Cc2c[nH]c3ccccc23)NC(=O)[C@H](CO)NC(=O)C(C)(C)NC1=O [Example 235] (cyclo([Bip(4'-COOH)][4Pal][Phe(4-COOH)]G[Pro(cis-4-F)][Trp(βS-Me,4-F)][Aib]SW[d(αMeD)][Ala(pyrimidin-5-yl)]Q[NMeDab]G[X4]))"
7,0.021 nM,"C[C@@H](c1c[nH]c2cccc(F)c12)[C@@H]1NC(=O)[C@@H]2C[C@H](F)CN2C(=O)CNC(=O)[C@H](Cc2ccc(C(=O)O)cc2)NC(=O)[C@H](Cc2ccncc2)NC(=O)[C@H](Cc2ccc(-c3ccc(C(=O)O)cc3)cc2)NC(=O)[C@H]2[C@@H](Cc3ccncc3)CCN2C(=O)CNC(=O)[C@H](CCN)NC(=O)[C@H](CCC(N)=O)NC(=O)[C@@H](Cc2ccc(F)cc2)NC(=O)[C@@](C)(CC(=O)O)NC(=O)[C@H](Cc2c[nH]c3ccccc23)NC(=O)[C@H](CO)NC(=O)C(C)(C)NC1=O [Example 236] (cyclo([Bip(4'-COOH)][4Pal][Phe(4-COOH)]G[Pro(cis-4-F)][Trp(βS-Me,4-F)][Aib]SW[d(αMeD)][dPhe(4-F)]Q[Dab]G[X4]))"
8,0.025 nM,"C[C@@H](c1c[nH]c2cccc(F)c12)[C@@H]1NC(=O)[C@@H]2C[C@H](F)CN2C(=O)CNC(=O)[C@H](Cc2ccc(C(=O)O)cc2)NC(=O)[C@H](Cc2ccncc2)NC(=O)[C@H](Cc2ccc(-c3ccc(C(=O)O)cc3)cc2)NC(=O)[C@H]2[C@@H](Cc3ccncc3)CCN2C(=O)CNC(=O)[C@H](CCN)NC(=O)[C@H](CCC(N)=O)NC(=O)[C@@H](CC2CCCCC2)NC(=O)[C@@](C)(CC(=O)O)NC(=O)[C@H](Cc2c[nH]c3ccccc23)NC(=O)[C@H](CO)NC(=O)C(C)(C)NC1=O [Example 237] (cyclo([Bip(4'-COOH)][4Pal][Phe(4-COOH)]G[Pro(cis-4-F)][Trp(βS-Me,4-F)][Aib]SW[d(αMeD)][dCha]Q[Dab]G[X4]))"
9,0.024 nM,"CC(C)C[C@H]1NC(=O)[C@@](C)(CC(=O)O)NC(=O)[C@H](Cc2c[nH]c3ccccc23)NC(=O)[C@H](CO)NC(=O)C(C)(C)NC(=O)[C@H]([C@@H](C)c2c[nH]c3cccc(F)c23)NC(=O)[C@@H]2C[C@H](F)CN2C(=O)CNC(=O)[C@H](Cc2ccc(C(=O)O)cc2)NC(=O)[C@H](Cc2ccncc2)NC(=O)[C@H](Cc2ccc(-c3ccc(C(=O)O)cc3)cc2)NC(=O)[C@H]2[C@@H](Cc3ccncc3)CCN2C(=O)CNC(=O)[C@H](CCN)NC(=O)[C@H](CCC(N)=O)NC1=O [Example 238] (cyclo([Bip(4'-COOH)][4Pal][Phe(4-COOH)]G[Pro(cis-4-F)][Trp(βS-Me,4-F)][Aib]SW[d(αMeD)][dL]Q[Dab]G[X4]))"
10,0.02 nM,"C[C@@H](c1c[nH]c2cccc(F)c12)[C@@H]1NC(=O)[C@@H]2C[C@H](F)CN2C(=O)CNC(=O)[C@H](Cc2ccc(C(=O)O)cc2)NC(=O)[C@H](Cc2ccncc2)NC(=O)[C@H](Cc2ccc(-c3ccc(C(=O)O)cc3)cc2)NC(=O)[C@H]2[C@@H](Cc3ccncc3)CCN2C(=O)CNC(=O)[C@H](CCN)NC(=O)[C@H](CCC(N)=O)NC(=O)[C@@H](CC2CCC2)NC(=O)[C@@](C)(CC(=O)O)NC(=O)[C@H](Cc2c[nH]c3ccccc23)NC(=O)[C@H](CO)NC(=O)C(C)(C)NC1=O [Example 239] (cyclo([Bip(4'-COOH)][4Pal][Phe(4-COOH)]G[Pro(cis-4-F)][Trp(βS-Me,4-F)][Aib]SW[d(αMeD)][dCba]Q[Dab]G[X4]))"
11,0.025 nM,"C[C@@H](c1c[nH]c2cccc(F)c12)[C@@H]1NC(=O)[C@@H]2C[C@H](F)CN2C(=O)CNC(=O)[C@H](Cc2ccc(C(=O)O)cc2)NC(=O)[C@H](Cc2ccncc2)NC(=O)[C@H](Cc2ccc(-c3ccc(C(=O)O)cc3)cc2)NC(=O)[C@H]2[C@@H](Cc3ccncc3)CCN2C(=O)CNC(=O)[C@H](CCN)NC(=O)[C@H](CCC(N)=O)NC(=O)[C@@H](Cc2cccnc2)NC(=O)[C@@](C)(CC(=O)O)NC(=O)[C@H](Cc2c[nH]c3ccccc23)NC(=O)[C@H](CO)NC(=O)C(C)(C)NC1=O [Example 240] (cyclo([Bip(4'-COOH)][4Pal][Phe(4-COOH)]G[Pro(cis-4-F)][Trp(βS-Me,4-F)][Aib]SW[d(αMeD)][d3Pal]Q[Dab]G[X4]))"
12,0.018 nM,"C[C@@H](c1c[nH]c2cccc(F)c12)[C@@H]1NC(=O)[C@@H]2C[C@H](F)CN2C(=O)CNC(=O)[C@H](Cc2ccc(C(=O)O)cc2)NC(=O)[C@H](Cc2ccncc2)NC(=O)[C@H](Cc2ccc(-c3ccc(C(=O)O)cc3)cc2)NC(=O)[C@H]2[C@@H](Cc3ccncc3)CCN2C(=O)CNC(=O)[C@H](CCN)N(C)C(=O)[C@H](CCC(N)=O)NC(=O)[C@H](Cc2cncnc2)NC(=O)C(C)(C)NC(=O)[C@H](Cc2c[nH]c3ccccc23)NC(=O)[C@H](CO)NC(=O)C(C)(C)NC1=O [Example 241] (cyclo([Bip(4'-COOH)][4Pal][Phe(4-COOH)]G[Pro(cis-4-F)][Trp(βS-Me,4-F)][Aib]SW[Aib][Ala(pyrimidin-5-yl)]Q[NMeDab]G[X4]))"
13,0.019 nM,"C[C@@H](c1c[nH]c2cccc(F)c12)[C@@H]1NC(=O)[C@@H]2C[C@H](F)CN2C(=O)CNC(=O)[C@H](Cc2ccc(C(=O)O)cc2)NC(=O)[C@H](Cc2ccncc2)NC(=O)[C@H](Cc2ccc(-c3ccc(C(=O)O)cc3)cc2)NC(=O)[C@H]2C[C@@H](Cc3ccncc3)CN2C(=O)CNC(=O)[C@H](CCN)NC(=O)[C@H](CCC(N)=O)NC(=O)[C@@H](CO)NC(=O)[C@@](C)(CC(=O)O)NC(=O)[C@H](Cc2c[nH]c3ccccc23)NC(=O)[C@H](CO)NC(=O)C(C)(C)NC1=O [Example 242] (cyclo([Bip(4'-COOH)][4Pal][Phe(4-COOH)]G[Pro(cis-4-F)][Trp(βS-Me,4-F)][Aib]SW[d(αMeD)][dS]Q[Dab]G[dPro(4R-(4-pyridylmethyl))]))"
